Source: patent US11312726B2, “Thienodiazepine derivatives and application thereof” (priority 2017, dated 2022)

Legend:
[1] = biological target: BRD4-BD2 (Homo sapiens (Human), UniProt O60885); experiment: BRD4 biochemical activity test (TR-FRET), BD2; details: read-out: BRD4 Binding (BD2), IC50
Excerpt: (§1) BRD4 Biochemical Activity Test
(§2) 1) BRD4-BD1 and BRD4-BD2 proteins of BPS Company, polypeptide of ANASPEC Company, and test reagent of PerkinElmer Company were used in the experiments;
(§3) 2) The TR-FRET experimental principle was used in the experiment to screen compounds.
(§4) 3) Relevant control compounds
(§5) 1) Preparation of the Compound Plate:
(§6) Preparation of the compound plate in the experiment was achieved by Echo:
(§7) 2) Preparation of Reaction Reagents:
(§8) Relevant reaction reagents should be prepared on the day of the experiment:
(§9) a) Formulation of 1× assay buffer;
(§10) b) Formulation of 3× component solution for the experiment: […]
(§11) 1. The reagent was taken out and placed on ice to naturally melt for later use;
(§12) 2. “Solution A” (protein solution), “solution B” (polypeptide solution), and “solution C” (test reagent solution) used in the experiment were formulated with the 1× assay buffer, and during the formation of the 3× solution from the components used in the experiment reaction system, the amounts of solutions A, B and C must be enough for the required amounts in the experiment.
(§13) 3) Experimental Operation Steps:
(§14) The experiment plate was a plate that contained a gradient concentration of the compound and a corresponding DMSO solution and was prepared with ECHO before the experiment:
(§15) a) The experiment plate was taken out, and 5 μL/well of “solution A” (protein solution) was added to columns 2-23 of the experiment plate, then 5 μL/well of 1× assay buffer was added to columns 1 and 24 of the experiment plate, and columns 1 and 24 were used as Min control in the experiment system;
(§16) b) Centrifugation at 1000 rpm was carried out for 30 seconds;
(§17) c) The plate was incubated at 23° C. for 20 minutes;
(§18) d) After 20 minutes of incubation, 5 μL/well of “solution B” (polypeptide solution) was added to columns 1-24 of the experiment plate;
(§19) e) Centrifugation at 1000 rpm was carried out for 30 seconds;
(§20) f) The plate was incubated at 23° C. for 20 minutes;
(§21) g) After 20 minutes of incubation, 5 μL/well of “solution C” (test reagent solution) was added to columns 1-24 of the experiment plate;
(§22) h) Centrifugation at 1000 rpm was carried out for 30 seconds;
(§23) i) The plate was incubated at 23° C. for 40 minutes;
(§24) j) The experiment plate was placed on EnVision to read the plate.
(§25) a) The corresponding Max control and Min control of each experiment plate were used to convert to the Z′ value of the experiment plate, and the Z′ value of each plate was ensured to be >0.5;
(§26) b) The IC50 value was calculated from the signal of the control compound by XLFIT5, and ensured to be maintained within 3 times of the average value of historical data.

[2] = biological target: BRD4-BD1 (Homo sapiens (Human), UniProt O60885); experiment: BRD4 biochemical activity test (TR-FRET), BD1; details: read-out: BRD4 Binding (BD1), IC50
Excerpt: as §1, §2, §3, §4, §5, §6, §7, §8, §9, §10, §11, §12, §13, §14, §15, §16, §17, §18, §19, §20, §21, §22, §23, §24, §25, §26

For `Cc1sc2c(c1C)C(c1ccc(Cl)cc1)=N[C@@H](CC(=O)Nc1ccc3c(c1)C(=O)NC3)c1nnc(C)n1-2` [Compound 1], the IC50 [1] was 11 nM and the IC50 [2] was 65 nM.

For `Cc1sc2c(c1C)C(c1ccc(Cl)cc1)=N[C@@H](CC(=O)Nc1ccc3c(c1)CNC3=O)c1nnc(C)n1-2` [Compound 2], the IC50 [1] was 10 nM and the IC50 [2] was 49 nM.

`Cc1sc2c(c1C)C(c1ccc(Cl)cc1)=N[C@@H](CC(=O)Nc1ccn3c(=O)c(O)cnc3c1)c1nnc(C)n1-2` [Compound 5] gave an IC50 [1] of 9 nM and an IC50 [2] of 83 nM.

Work on `Cc1sc2c(c1C)C(c1ccc(Cl)cc1)=N[C@@H](CC(=O)Nc1n[nH]c(=O)c3ccccc13)c1nnc(C)n1-2` [Compound 8] yielded an IC50 [1] of 11 nM and an IC50 [2] of 51 nM.

In the case of `Cc1sc2c(c1C)C(c1ccc(Cl)cc1)=N[C@@H](CC(=O)Nc1ccc3c(c1)C1(CC1)C(=O)N3)c1nnc(C)n1-2` [Compound 9], the IC50 [1] is reported as 11 nM and the IC50 [2] is reported as 49 nM.

Work on `Cc1sc2c(c1C)C(c1ccc(Cl)cc1)=N[C@@H](CC(=O)Nc1ccc3c(c1)C(=O)NC31CC1)c1nnc(C)n1-2` [Compound 10] yielded an IC50 [1] of 16 nM and an IC50 [2] of 81 nM.

In the case of `Cc1sc2c(c1C)C(c1ccc(Cl)cc1)=N[C@@H](CC(=O)Nc1ccc3c(c1)C1(CC1)NC3=O)c1nnc(C)n1-2` [Compound 12], the IC50 [1] is reported as 12 nM and the IC50 [2] is reported as 40 nM.

`Cc1sc2c(c1C)C(c1ccc(Cl)cc1)=N[C@@H](CC(=O)Nc1ccc3c(c1)COC3)c1nnc(C)n1-2` [Compound 16] gave an IC50 [1] of 12 nM and an IC50 [2] of 60 nM.

With `CC(=O)N1Cc2ccc(NC(=O)C[C@@H]3N=C(c4ccc(Cl)cc4)c4c(sc(C)c4C)-n4c(C)nnc43)cc2C1` [Compound 17] the IC50 [1] was 7 nM and the IC50 [2] was 24 nM.

With `Cc1sc2c(c1C)C(c1ccc(Cl)cc1)=N[C@@H](CC(=O)Nc1ccc3c(c1)CNC3)c1nnc(C)n1-2` [Compound 18] the IC50 [1] was 8 nM and the IC50 [2] was 23 nM.

`Cc1sc2c(c1C)C(c1ccc(Cl)cc1)=N[C@@H](CC(=O)Nc1ccc3c(c1)CN(S(C)(=O)=O)C3)c1nnc(C)n1-2` [Compound 19] showed an IC50 [1] of 8 nM and an IC50 [2] of 49 nM.

`Cc1sc2c(c1C)C(c1ccc(Cl)cc1)=N[C@@H](CC(=O)Nc1ccc3c(c1)CN(C(N)=O)C3)c1nnc(C)n1-2` [Compound 20] was tested, and the IC50 [1] was 11 nM and the IC50 [2] was 169 nM.

`Cc1sc2c(c1C)C(c1ccc(Cl)cc1)=N[C@@H](CC(=O)Nc1ccc3c(c1)CC(F)(F)C3)c1nnc(C)n1-2` [Compound 21] showed an IC50 [1] of 34 nM and an IC50 [2] of 522 nM.

In the case of `Cc1sc2c(c1C)C(c1ccc(Cl)cc1)=N[C@@H](CC(=O)Nc1ccc3c(c1)C(=O)SC3)c1nnc(C)n1-2` [Compound 22], the IC50 [1] is reported as 10 nM and the IC50 [2] is reported as 199 nM.

`Cc1sc2c(c1C)C(c1ccc(Cl)cc1)=N[C@@H](CC(=O)Nc1ccc3c(c1)C[C@@H](F)C3)c1nnc(C)n1-2` [Compound 24] gave an IC50 [1] of 17 nM and an IC50 [2] of 206 nM.

`Cc1sc2c(c1C)C(c1ccc(Cl)cc1)=N[C@@H](CC(=O)Nc1ccc3c(c1C)COC3)c1nnc(C)n1-2` [Compound 25] showed an IC50 [1] of 20 nM and an IC50 [2] of 79 nM.

In the case of `Cc1cc2c(cc1NC(=O)C[C@@H]1N=C(c3ccc(Cl)cc3)c3c(sc(C)c3C)-n3c(C)nnc31)COC2` [Compound 26], the IC50 [1] is reported as 30 nM and the IC50 [2] is reported as 112 nM.

With `Cc1sc2c(c1C)C(c1ccc(Cl)cc1)=N[C@@H](CC(=O)Nc1ccc3c(c1)CC1(COC1)C3)c1nnc(C)n1-2` [Compound 27] the IC50 [1] was 9 nM and the IC50 [2] was 55 nM.

Molecule `Cc1sc2c(c1C)C(c1ccc(Cl)cc1)=N[C@@H](CC(=O)Nc1cc3c(cc1Cl)COC3)c1nnc(C)n1-2` [Compound 28] has an IC50 [1] of 15 nM and an IC50 [2] of 60 nM.

`Cc1sc2c(c1C)C(c1ccc(Cl)cc1)=N[C@@H](CC(=O)Nc1cc3c(cc1F)COC3)c1nnc(C)n1-2` [Compound 29] gave an IC50 [1] of 16 nM and an IC50 [2] of 74 nM.

`Cc1sc2c(c1C)C(c1ccc(Cl)cc1)=N[C@@H](CC(=O)Nc1ccc3c(c1)C(=O)OC3)c1nnc(C)n1-2` [Compound 30] was tested, and the IC50 [1] was 9 nM and the IC50 [2] was 51 nM.

With `Cc1sc2c(c1C)C(c1ccc(Cl)cc1)=N[C@@H](CC(=O)Nc1ccc3c(c1)OCCOCCOCCO3)c1nnc(C)n1-2` [Compound 31] the IC50 [1] was 5 nM and the IC50 [2] was 37 nM.

`Cc1sc2c(c1C)C(c1ccc(Cl)cc1)=N[C@@H](CC(=O)Nc1ccc3nonc3c1)c1nnc(C)n1-2` [Compound 33] showed an IC50 [1] of 19 nM and an IC50 [2] of 248 nM.

For `Cc1sc2c(c1C)C(c1ccc(Cl)cc1)=N[C@@H](CC(=O)Nc1ccc3c(c1)[C@H]1CC[C@@H]3O1)c1nnc(C)n1-2` [Compound 35], the IC50 [1] was 12 nM and the IC50 [2] was 155 nM.

`Cc1sc2c(c1C)C(c1ccc(Cl)cc1)=N[C@@H](CC(=O)Nc1ccc3c(c1)C(=O)NC3=O)c1nnc(C)n1-2` [Compound 36] showed an IC50 [1] of 10 nM and an IC50 [2] of 126 nM.

Work on `Cc1sc2c(c1C)C(c1ccc(Cl)cc1)=N[C@@H](CC(=O)Nc1ccc3c(c1)C(C)(C)OC3=O)c1nnc(C)n1-2` [Compound 37] yielded an IC50 [1] of 11 nM and an IC50 [2] of 148 nM.
